{"source": "patent US12389910B2", "about": "“Beta-lactams and their use as herbicides” (BASF SE, priority 2020, dated 2025)", "key": {"SETFA [1]": {"system": "SETFA", "experiment": "greenhouse herbicidal activity, pre-emergence treatment", "assay_type": "in vivo, Setaria faberi", "details": "pre-emergence method, scale 0 to 100", "from_the_text": "(§1) The culture containers used were plastic flowerpots containing loamy sand with approximately 3.0% of humus as the substrate. The seeds of the test plants were sown separately for each species.\n(§2) For the pre-emergence treatment, the active ingredients, which had been suspended or emulsified in water, were applied directly after sowing by means of finely distributing nozzles. The containers were irrigated gently to promote germination and growth and subsequently covered with transparent plastic hoods until the test plants had rooted. This cover caused uniform germination of the test plants, unless this had been impaired by the active ingredients. For the post-emergence treatment, the test plants were first grown to a height of 3 to 15 cm, depending on the plant habit, and only then treated with the active ingredients which had been suspended or emulsified in water. For this purpose, the test plants were either sown directly and grown in the same containers, or they were first grown separately as seedlings and transplanted into the test containers a few days prior to treatment.\n(§3) Depending on the species, the test plants were kept at 10-25° C. or 20-35° C., respectively. The test period extended over 2 to 4 weeks. During this time, the test plants were tended, and their response to the individual treatments was evaluated.\n(§4) Evaluation was carried out using a scale from 0 to 100. […]"}, "ECHCG [2]": {"system": "ECHCG", "experiment": "greenhouse herbicidal activity, pre-emergence treatment", "assay_type": "in vivo, Echinocloa crus-galli", "details": "pre-emergence method, application rate 0,250 kg/ha; scale 0 to 100", "from_the_text": "as §1, §2, §3, §4"}, "ECHCG [3]": {"system": "ECHCG", "experiment": "greenhouse herbicidal activity, post-emergence treatment", "assay_type": "in vivo, Echinocloa crus-galli", "details": "post-emergence method, scale 0 to 100", "from_the_text": "as §1, §2, §3, §4"}, "AVEFA": {"system": "AVEFA", "experiment": "greenhouse herbicidal activity, post-emergence treatment", "assay_type": "in vivo, Avena fatua", "details": "post-emergence method, scale 0 to 100", "from_the_text": "as §1, §2, §3\nEvaluation was carried out using a scale from 0 to 100. 100 means no emergence of the test plants, or complete destruction of at least the aerial moieties, and 0 means no damage, or normal course of growth. A good herbicidal activity is given at values of 80 to 90 and a very good herbicidal activity is given at values of 90 to 100.\nThe test plants used in the greenhouse experiments were of the following species: Bayer code Scientific name"}, "APESV": {"system": "APESV", "experiment": "greenhouse herbicidal activity, pre-emergence treatment", "assay_type": "in vivo, Apera spica-venti", "details": "pre-emergence method, application rate 1,000 kg/ha; scale 0 to 100", "from_the_text": "as §1, §2, §3, §4"}, "AMARE [4]": {"system": "AMARE", "experiment": "greenhouse herbicidal activity, pre-emergence treatment", "assay_type": "in vivo, Amaranthus retroflexus", "details": "pre-emergence method, application rate 0,500 kg/ha; scale 0 to 100", "from_the_text": "as §1, §2, §3, §4"}, "AMARE [5]": {"system": "AMARE", "experiment": "greenhouse herbicidal activity, post-emergence treatment", "assay_type": "in vivo, Amaranthus retroflexus", "details": "post-emergence method, application rate 0,250 kg/ha; scale 0 to 100", "from_the_text": "as §1, §2, §3, §4"}, "ABUTH [6]": {"system": "ABUTH", "experiment": "greenhouse herbicidal activity, post-emergence treatment", "assay_type": "in vivo, Abutilon theophrasti", "details": "post-emergence method, scale 0 to 100", "from_the_text": "as §1, §2, §3, §4"}, "ALOMY": {"system": "ALOMY", "experiment": "greenhouse herbicidal activity, post-emergence treatment", "assay_type": "in vivo, Alopercurus myosuroides", "details": "post-emergence method, scale 0 to 100", "from_the_text": "as §1, §2, §3, §4"}, "SETFA [7]": {"system": "SETFA", "experiment": "greenhouse herbicidal activity, post-emergence treatment", "assay_type": "in vivo, Setaria faberi", "details": "post-emergence method, application rate 62.5 g/ha; scale 0 to 100", "from_the_text": "as §1, §2, §3, §4"}, "SETVI": {"system": "SETVI", "experiment": "greenhouse herbicidal activity, post-emergence treatment", "assay_type": "in vivo, Setaria viridis", "details": "post-emergence method, application rate 16.0 g/ha; scale 0 to 100", "from_the_text": "as §1, §2, §3, §4"}, "LOLMU": {"system": "LOLMU", "experiment": "greenhouse herbicidal activity, post-emergence treatment", "assay_type": "in vivo", "details": "post-emergence method, application rate 16.0 g/ha; scale 0 to 100", "from_the_text": "as §1, §2, §3, §4"}, "ABUTH [8]": {"system": "ABUTH", "experiment": "greenhouse herbicidal activity, pre-emergence treatment", "assay_type": "in vivo, Abutilon theophrasti", "details": "pre-emergence method, application rate 0,250 kg/ha; scale 0 to 100", "from_the_text": "as §1, §2, §3, §4"}}, "data": [{"molecule": "COC(=O)[C@@H]1C=C[C@H](NC(=O)C2(C)CN(c3cc(C)cc(F)c3)C2=O)C1", "note": "(relative stereo) [compound 141]", "values": [{"measurement": "herbicidal activity against SETFA", "setting": "SETFA [1]; application rate 0,250 kg/ha", "result": "good (A good herbicidal activity is given at values of 80 to 90)"}, {"measurement": "herbicidal activity against ECHCG", "setting": "ECHCG [2]", "result": "good (A good herbicidal activity is given at values of 80 to 90)"}, {"measurement": "herbicidal activity against ECHCG", "setting": "ECHCG [3]; application rate 0,250 kg/ha", "result": "good (A good herbicidal activity is given at values of 80 to 90)"}]}, {"molecule": "COC(=O)[C@@H]1C=C[C@H](NC(=O)C2(C)CN(c3cccc(OC(F)(F)C(F)F)c3)C2=O)C1", "note": "(relative stereo) [compound 146]", "values": [{"measurement": "herbicidal activity against AVEFA", "setting": "AVEFA; application rate 0,250 kg/ha", "result": "good (A good herbicidal activity is given at values of 80 to 90)"}]}, {"molecule": "COC(=O)CC(C)NC(=O)C1(C)CN(c2cc(Cl)cc(Cl)c2)C1=O", "note": "(stereo not shown) [compound 11]", "values": [{"measurement": "herbicidal activity against APESV", "setting": "APESV", "result": "very good (a very good herbicidal activity is given at values of 90 to 100)"}, {"measurement": "herbicidal activity against SETFA", "setting": "SETFA [1]; application rate 1,000 kg/ha", "result": "very good (a very good herbicidal activity is given at values of 90 to 100)"}, {"measurement": "herbicidal activity against ECHCG", "setting": "ECHCG [3]; application rate 1,000 kg/ha", "result": "very good (a very good herbicidal activity is given at values of 90 to 100)"}]}, {"molecule": "CCOC(=O)CC(C)NC(=O)C1(OC)CN(c2cc(Cl)cc(Cl)c2)C1=O", "note": "(stereo not shown) [compound 13]", "values": [{"measurement": "herbicidal activity against AMARE", "setting": "AMARE [4]", "result": "good (A good herbicidal activity is given at values of 80 to 90)"}]}, {"molecule": "CCC1(C(=O)NC(C)CC(=O)OC)CN(c2cc(Cl)cc(Cl)c2)C1=O", "note": "(stereo not shown) [compound 125]", "values": [{"measurement": "herbicidal activity against AMARE", "setting": "AMARE [5]", "result": "good (A good herbicidal activity is given at values of 80 to 90)"}]}, {"molecule": "COC(=O)CC(C)NC(=O)C1CN(c2cc(Cl)cc(Cl)c2)C1=O", "note": "(stereo not shown) [compound 131]", "values": [{"measurement": "herbicidal activity against ABUTH", "setting": "ABUTH [6]; application rate 1,000 kg/ha", "result": "very good (a very good herbicidal activity is given at values of 90 to 100)"}]}, {"molecule": "CC1(C(=O)NC2C=CC(C(=O)O)C2)CN(c2cc(F)cc(F)c2)C1=O", "note": "(stereo not shown) [compound 133]", "values": [{"measurement": "herbicidal activity against ALOMY", "setting": "ALOMY; application rate 62.5 g/ha", "result": "good (A good herbicidal activity is given at values of 80 to 90)"}, {"measurement": "herbicidal activity against AVEFA", "setting": "AVEFA; application rate 62.5 g/ha", "result": "very good (a very good herbicidal activity is given at values of 90 to 100)"}, {"measurement": "herbicidal activity against SETFA", "setting": "SETFA [7]", "result": "very good (a very good herbicidal activity is given at values of 90 to 100)"}]}, {"molecule": "COC(=O)C1C=CC(NC(=O)C2(C)CN(c3cccc(Cl)c3)C2=O)C1", "note": "(stereo not shown) [compound 136]", "values": [{"measurement": "herbicidal activity against SETVI", "setting": "SETVI", "result": "very good (a very good herbicidal activity is given at values of 90 to 100)"}, {"measurement": "herbicidal activity against AVEFA", "setting": "AVEFA; application rate 16.0 g/ha", "result": "very good (a very good herbicidal activity is given at values of 90 to 100)"}, {"measurement": "herbicidal activity against LOLMU", "setting": "LOLMU", "result": "very good (a very good herbicidal activity is given at values of 90 to 100)"}]}, {"molecule": "COC(=O)CC(C)NC(=O)C1(C)CN(c2cc(C)cc(F)c2)C1=O", "note": "(stereo not shown) [compound 142]", "values": [{"measurement": "herbicidal activity against ABUTH", "setting": "ABUTH [8]", "result": "good (A good herbicidal activity is given at values of 80 to 90)"}, {"measurement": "herbicidal activity against ALOMY", "setting": "ALOMY; application rate 0,250 kg/ha", "result": "good (A good herbicidal activity is given at values of 80 to 90)"}]}, {"molecule": "COC(=O)C1C=CC(NC(=O)C2(C)CN(c3ccc(F)c(C#N)c3)C2=O)C1", "note": "(stereo not shown) [compound 147]", "values": [{"measurement": "herbicidal activity against ABUTH", "setting": "ABUTH [6]; application rate 0,250 kg/ha", "result": "very good (a very good herbicidal activity is given at values of 90 to 100)"}]}]}
